Here are results for four compounds from patent publication US12643855B2, “Fluorogenic dimer compound, useful as a probe for detection of endogenous receptors” (UNIVERSITE DE STRASBOURG, priority 2020, dated 2026).

For data set [1] the following is noted: in EtOH; cited from earlier work.
For data set [2] the following is noted: in EtOH; cited from earlier work. The source holds these as a separate data set.
Data set [3] in a line: Absorption and fluorescence spectroscopy, Cy5.5 dimers (Examples 2 and 3). Type of data set: physicochemical. The settings on record: for λem, position of the emission maximum: excitation 630 nm. The protocol:
Absorption spectra were recorded on a Shimadzu UV-2700i spectrophotometer and fluorescence spectra on a Horiba Fluoromax 4 spectrofluorometer. Fluorescence emission spectra were systematically recorded at 630 nm excitation wavelength at 20° C. All fluorescence spectra were corrected for instrumental effects. Fluorescence quantum yields (QY) were measured using Rhodamine 800 in EtOH as a reference (QY=25%).^[ref] Turn-ON were calculated as a ratio of OY of compounds in EtOH to OY in water. • Ref A. Alessi, M. Salvalaggio, G. Ruzzon, J. Lumin. 2013, 134, 385-389. DY647 Dimers
Absorption spectra were recorded on a Shimadzu UV-2700i spectrophotometer and fluorescence spectra on a Horiba Fluoromax 4 spectrofluorometer. Fluorescence emission spectra were systematically recorded at 630 nm excitation wavelength at 20° C. All fluorescence spectra were corrected for instrumental effects. Fluorescence quantum yields (QY) were measured using Rhodamine 800 in EtOH as a reference (QY=25%).^[ref] Turn-ON were calculated as a ratio of QY of compounds in EtOH to QY in water. • Ref A. Alessi, M. Salvalaggio, G. Ruzzon, J. Lumin. 2013, 134, 385-389. DY647 Dimers

For data set [4] the following is noted: in MeOH; cited from earlier work.
For data set [5], the target named is T1, endogenous OTR (oxytocin receptor) in mammary glands (Mus musculus, UniProt P97926).
T1 construct: target-specific imaging of the naturally expressed receptor in living mice; from tissue; host or cells: living lactating Swiss mice (mammary glands), in vivo imaging
T1 sequence (P97926 1-388): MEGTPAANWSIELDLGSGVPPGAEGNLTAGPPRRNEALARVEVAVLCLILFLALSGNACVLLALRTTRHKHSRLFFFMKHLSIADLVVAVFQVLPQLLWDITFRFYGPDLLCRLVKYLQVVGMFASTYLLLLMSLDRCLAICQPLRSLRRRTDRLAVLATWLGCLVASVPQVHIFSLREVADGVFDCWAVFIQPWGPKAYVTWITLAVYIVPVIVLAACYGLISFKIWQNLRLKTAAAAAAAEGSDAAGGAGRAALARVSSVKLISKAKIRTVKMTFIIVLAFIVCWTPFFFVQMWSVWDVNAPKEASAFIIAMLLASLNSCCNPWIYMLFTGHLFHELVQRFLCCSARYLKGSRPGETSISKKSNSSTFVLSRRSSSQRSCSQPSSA
The data set is described as follows: In vivo fluorescence biodistribution study (small animal fluorescence imaging). The settings on record: lactating mice, 7.5 nmol i.v., imaged 30 min after.
Description: Representative images of at least 3 biological replicates.
Twelve-week-old pregnant female Swiss mice were purchased from Janvier Laboratories (France). Animals were maintained under controlled environmental conditions (20±2° C.) with a relative humidity (50±10%) and a 12 hour light/dark cycle in Individually ventilated cages (GM500, Techniplast) with bedding made from spruce wood chips (Safe, villeAugy, France) and enriched with nestlets. Food (autoclavable diet, D04, Safe, France) and tap water were available ad libitum. Animal experimentation was conducted with the approval of the French ministry of agriculture and the Ethics local committee for animal experimentation of the Strasbourg University (CREMEAS) under the authorization number #11974-2017103010101372.
Animal fluorescence imaging was performed using a luminograph (NightOwl, Berthold Technologies). Lactating mice 11 days after delivery were anesthetized intraperitoneally (Ketamine 150 mg/kg, xylazine 10 mg/kg). Fluorescent compounds (100 μL containing 7.5 nmol in 0.9% NaCl) with or without non-fluorescent carbetocin (100 μL containing 450 nmol in 0.9% NaCl) were administered intravenously (tail vein). […] Mice were imaged using a halogen lamp (75 W, 340-750 nm) and emission of the dyes was recorded using a 630/700 nm filter. […]

In data set [6] the test system is GFP-fused oxytocin receptor (GFP-OTR). As to the kind of experiment: Fluorescence confocal microscopy on living HEK293 cells expressing GFP-OTR, no-wash conditions. Type of data set: cell-based. The settings on record: 500 nM. The procedure: FIG. 1: Confocal microscopy studies of dCy5.5-PEG-CBT and mCy5.5-PEG-CBT on living HEK 293 cells expressing OTR-GFP fusion under no-wash conditions. Cells were incubated with the ligands for 5 min at room temperature prior to the imaging.
HEK293 cells expressing the GFP-fused oxytocin receptor (GFP-OTR) and wild-type HEK293 cells were cultured in Eagle's minimal essential medium (MEM, Invitrogen 21090) with 10% of heat-inactivated fetal bovine serum, 100 U/mL of penicillin, 100 µg/mL of streptomycin, 2 mM of glutamine and 50 µg/mL of hygromycin B for GFP-OTR cells at 37° C. in a humidified 5% CO2 atmosphere. 70-80% cell confluence was maintained by removal of a portion of the culture and replacement with fresh medium twice a week. For confocal microscopy studies, cells were seeded onto 35 mm ibiTreat Ibidi Polymer Coverslip at a density of 100 000 cells/Ibidi 24 h before microscopy.
[…] For competition experiments, a mixture of 10 nM of fluorescent ligands and 2 μM of carbetocin was used. Fluorescence confocal microscopy experiments were performed on a Leica TCS SPE-II microscope with a HXC PL APO 63×/1.40 OIL CS objective. GFP excitation was performed with a 488 nm 10 mW laser, the excitation of Cy5.5 was performed with a 635 nm 18 mW laser. Image treatment was proceeded using ImageJ (Wayne Rasband, National Institute of Mental Health, Bethesda).

Where two headings read alike, the source gives them in different places.

For the compound Rhodamine 800, the “Fluorescence quantum yield (QY) of the reference” value in data set [1] and in data set [2] was 25% each time.

As to `COCCOCCOCCOCCOCCOCCOCCOCC[N+]1=C(/C=C/C=C/C=C2/N(CCCCCC(=O)NCCOCCOCCNC(=O)CCC(=O)NCCCC[C@H](NC(=O)CCC(=O)NCCOCCOCCNC(=O)CCCCCN3/C(=C/C=C/C=C/C4=[N+](CCOCCOCCOCCOCCOCCOCCOCCOC)c5ccc6ccccc6c5C4(C)C)C(C)(C)c4c3ccc3ccccc43)C(=O)NCCOCCOCCNC(=O)CCC(=O)NCCOCCOCCNC(=O)CCC(=O)OC(C)(C)C)c3ccc4ccccc4c3C2(C)C)C(C)(C)c2c1ccc1ccccc21` [Compound 5], the “QY, fluorescence quantum yield” value in data set [3] (Acetone) stood at 25.0%; in data set [3] (Acetonitrile), 22.7%; in data set [3] (EtOH), 26.5%; in data set [3] (H2O) it was 0.4%; in data set [3] (MeOH), 21.1%. Further, the “λabs, position of the absorption maximum” value turned out to be 683 nm in data set [3] (Acetone); 681 nm in data set [3] (Acetonitrile); 685 nm in data set [3] (EtOH); 630 nm in data set [3] (H2O); 682 nm in data set [3] (MeOH). In addition, the “λem, position of the emission maximum” value stood at 708 nm in data set [3] (Acetone); 703 nm in data set [3] (Acetonitrile); 708 nm in data set [3] (EtOH); 708 nm in data set [3] (H2O); 708 nm in data set [3] (MeOH). For the same compound, the Fluorescence turn-on in data set [3] (ratio of quantum yields in EtOH to that in water (200 nM), Cy5.5 dimers) came to 66.

With `CCCCCCCCCCCCCCCCCCN1/C(=C/C=C/C=C/C2=[N+](CCCCCCCCCCCCCCCCCC)c3ccccc3C2(C)C)C(C)(C)c2ccccc21.[O-][Cl+3]([O-])([O-])[O-]` [DID], the “Fluorescence quantum yield (QY) of the reference” value in data set [4] is 33%.

On to `CC[C@H](C)[C@@H]1NC(=O)[C@H](Cc2ccc(OC)cc2)NC(=O)CCCSC[C@@H](C(=O)N2CCC[C@H]2C(=O)N[C@@H](CCCCn2cc(CNC(=O)CCNC(=O)CCC(=O)NCCOCCOCCNC(=O)CCC(=O)NCCOCCOCCNC(=O)CCC(=O)NCCOCCOCCNC(=O)CCCCCN3/C(=C/C=C/C=C/C4=[N+](CCOCCOCCOCCOCCOCCOCCOCCOC)c5ccc6ccccc6c5C4(C)C)C(C)(C)c4c3ccc3ccccc43)nn2)C(=O)NCC(N)=O)NC(=O)[C@H](CC(N)=O)NC(=O)[C@H](CCC(N)=O)NC1=O.O=C([O-])C(F)(F)F` [mCy5.5-PEG-CBT], for which the Off-target fluorescence signal entry in data set [5] is reported as “strong off-target fluorescence”. Further, the “Image background from unbound probe” value in data set [6] is “strong background”.
